In the COVID Moonshot data (paper PMC7615835):
Several values for one entry are separate records, joined by “and”; a condition that tells them apart may be missing. Equal values may be shown once.

What was measured:
[1] = target: SARS-CoV-2 Main Protease (SARS-CoV-2) (UniProt P0DTD1)
[2] = in vivo, iv
[3] = not given; remark: listed apart in the source
[4] = dog; liver_microsomes
[5] = human; liver_microsomes
[6] = human; plasma
[7] = rat; plasma
[8] = rat; in vivo; po; 10.0 mg/kg

SMILES: COc1ccc2cncc(NC(=O)[C@]3(OC)CCOc4ccc(Cl)cc43)c2c1 (stereo in doubt)
- IC50 [1]: 61.2 nM and 76.5 nM and 85.3 nM
- logD: 3.4

SMILES: CS(=O)(=O)c1ccc2cncc(NC(=O)C3CCNc4cc(Cl)c(Cl)cc43)c2c1 (configuration not stated)
- IC50 [1]: 526 nM
- AUC(0-inf) ([2]; rat, 0.5 mg/kg): 285 ng·h/mL and 378 ng·h/mL and 178 ng·h/mL
- AUC(0-t) ([2]; rat, 0.5 mg/kg): 282 ng·h/mL and 377 ng·h/mL and 175 ng·h/mL
- C0 ([2]; rat, 0.5 mg/kg): 741 ng/mL and 1320 ng/mL and 725 ng/mL
- MRT inf ([2]; rat, 0.5 mg/kg): 28.6 min and 41 min and 22.8 min
- MRT last ([2]; rat, 0.5 mg/kg): 38 min and 27.8 min and 21 min
- Vd ([2]; rat, 0.5 mg/kg): 1.2 L/kg and 0.645 L/kg and 1.15 L/kg
- clearance ([2]; rat, 0.5 mg/kg): 29.2 mL/min/kg and 22.4 mL/min/kg and 50.2 mL/min/kg
- half-life ([2]; rat, 0.5 mg/kg): 38.9 min and 29.9 min and 21.2 min
- logD: 3.1
- CC50 ([3]; a549): > 9990 nM

SMILES: CC(C)(C)c1ccc(N(C(=O)c2cocn2)C(C(=O)NCC2CCCO2)c2cccnc2)cc1 (configuration not stated)
- IC50 [1]: 5150 nM
- CC50 ([3]; vero): > 10000 nM

SMILES: CC1Cn2nccc2CN1C(=O)CC1(C(=O)Nc2cncc3ccccc23)CCOc2ccc(Cl)cc21 (configuration not stated)
- IC50 [1]: 1560 nM and 2850 nM
- CC50 ([3]; a549): > 9990 nM

SMILES: O=C(Nc1cncc2cc(CO)ccc12)C1CCOc2ccc(Cl)cc21 (configuration not stated)
- IC50 [1]: 1400 nM
- AUC(0-inf) ([2]; rat, 0.5 mg/kg): 187 ng·h/mL and 325 ng·h/mL
- AUC(0-t) ([2]; rat, 0.5 mg/kg): 182 ng·h/mL and 321 ng·h/mL
- C0 ([2]; rat, 0.5 mg/kg): 518 ng/mL and 742 ng/mL
- MRT inf ([2]; rat, 0.5 mg/kg): 36.2 min and 29.3 min
- MRT last ([2]; rat, 0.5 mg/kg): 26 min and 34 min
- Vd ([2]; rat, 0.5 mg/kg): 1.31 L/kg and 0.947 L/kg
- clearance ([2]; rat, 0.5 mg/kg): 44.6 mL/min/kg and 26.8 mL/min/kg
- half-life ([2]; rat, 0.5 mg/kg): 27.7 min
- logD: 2.2

SMILES: CCCc1cc(Cl)cc(CC(=O)Nc2cncc3ccccc23)c1
- IC50 [1]: 2650 nM
- CC50 ([3]; a549): > 9990 nM

SMILES: O=C(Nc1cncc2ccccc12)C1CCS(=O)(=O)c2ccc(Cl)cc21 (configuration not stated)
- half-life [4]: 69 min
- microsomal CLint [5]: 10 µL/min/mg
- IC50 [1]: 288 nM
- fraction unbound [6]: 0.106 and 0.125
- recovery [6]: 96.9%
- AUC(0-inf) ([2]; mouse, 0.5 mg/kg): 192 ng·h/mL and 207 ng·h/mL
- AUC(0-t) ([2]; mouse, 0.5 mg/kg): 190 ng·h/mL and 204 ng·h/mL
- C0 ([2]; mouse, 0.5 mg/kg): 460 ng/mL and 586 ng/mL
- MRT inf ([2]; mouse, 0.5 mg/kg): 26.5 min and 25.2 min
- MRT last ([2]; mouse, 0.5 mg/kg): 25.1 min and 23.6 min
- Vd ([2]; mouse, 0.5 mg/kg): 1.09 L/kg and 0.972 L/kg
- clearance ([2]; mouse, 0.5 mg/kg): 41.3 mL/min/kg and 38.6 mL/min/kg
- half-life ([2]; mouse, 0.5 mg/kg): 18.4 min and 19.9 min
- AUC(0-inf) ([2]; rat, 2.0 mg/kg): 2890 ng·h/mL
- AUC(0-t) ([2]; rat, 2.0 mg/kg): 2850 ng·h/mL and 2840 ng·h/mL
- C0 ([2]; rat, 2.0 mg/kg): 1400 ng/mL and 1460 ng/mL
- MRT inf ([2]; rat, 2.0 mg/kg): 112 min and 98.4 min
- MRT last ([2]; rat, 2.0 mg/kg): 92.4 min and 101 min
- Vd ([2]; rat, 2.0 mg/kg): 1.13 L/kg and 1.29 L/kg
- clearance ([2]; rat, 2.0 mg/kg): 11.5 mL/min/kg and 11.6 mL/min/kg
- half-life ([2]; rat, 2.0 mg/kg): 78 min and 88.2 min
- logD: 2
- fraction unbound [7]: 0.2
- recovery [7]: 98%
- AUC(0-inf) [8]: 14300 ng·h/mL
- AUC(0-t) [8]: 14300 ng·h/mL
- CL/F [8]: 11.9 mL/min/kg
- MRT inf [8]: 205 min
- MRT last [8]: 205 min
- Tmax [8]: 60 min
- half-life [8]: 115 min

SMILES: CS(=O)(=O)c1ccc2cncc(NC(=O)C3CCOc4cc(F)c(Cl)cc43)c2c1 (configuration not stated)
- IC50 [1]: 1890 nM and 1270 nM
- CC50 ([3]; a549): > 9990 nM
